Assay results from patent publication US9944647B2 (Incyte Corporation, priority 2015, dated 2018).

The molecules below were run against LSD-1 enzyme (Homo sapiens (Human), UniProt O60341) (assay: LANCE LSD1/KDM1A demethylase assay (LSD1 histone demethylase biochemical assay)). Conditions: 1 nM LSD-1 enzyme, 1 hour preincubation at 25° C., Biotin-labeled Histone H3 peptide substrate.

SMILES | IC50 [nM]
Cc1ccc(-c2c(-c3ccc(C#N)cc3)nc(N3CCC(N(C)C)CC3)n3ccnc23)cn1 [Example 112, 4-[5-[4-(dimethylamino)piperidin-1-yl]-8-(6-methylpyridin-3-yl)imidazo[1,2-c]pyrimidin-7-yl]benzonitrile] | 50 to 500
Cc1ncc(-c2c(-c3ccc(C#N)cc3)nc(N3CCC(N(C)C)CC3)n3ccnc23)cc1F [Example 113, 4-[5-[4-(dimethylamino)piperidin-1-yl]-8-(5-fluoro-6-methylpyridin-3-yl)imidazo[1,2-c]pyrimidin-7-yl]benzonitrile] | ≤ 50
CN(C)C1CCN(c2nc(-c3ccc(C#N)cc3)c(-c3ccc(N(C)S(C)(=O)=O)nc3)c3nccn23)CC1 [Example 115, N-(5-{7-(4-cyanophenyl)-5-[4-(dimethylamino)piperidin-1-yl]imidazo[1,2-c]pyrimidin-8-yl}pyridin-2-yl)-N-methylmethanesulfonamide] | ≤ 50
CCOc1ccc(-c2c(-c3ccc(C#N)cc3)nc(N3CCC(N(C)C)CC3)n3ccnc23)cn1 [Example 117, 4-[5-[4-(dimethylamino)piperidin-1-yl]-8-(6-ethoxypyridin-3-yl)imidazo[1,2-c]pyrimidin-7-yl]benzonitrile] | ≤ 50
CC(C)c1ccc(-c2c(-c3ccc(C#N)cc3)nc(N3CCC(N(C)C)CC3)n3ccnc23)cn1 [Example 118, 4-[5-[4-(dimethylamino)piperidin-1-yl]-8-(6-isopropylpyridin-3-yl)imidazo[1,2-c]pyrimidin-7-yl]benzonitrile] | 50 to 500
CCN1CCC[C@@H](COc2nc(-c3ccc(C#N)cc3)c(-c3ccc(C)cc3CO)c3nccn23)C1 [Example 119, 4-{5-{[(3R)-1-ethylpiperidin-3-yl]methoxy}-8-[2-(hydroxymethyl)-4-methylphenyl]imidazo[1,2-c]pyrimidin-7-yl}benzonitrile] | 50 to 500
CN(C)C1CCN(c2nc(-c3ccc(C#N)cc3)c(-c3ccc4scnc4c3)c3nccn23)CC1 [Example 120, 4-{8-(1,3-benzothiazol-5-yl)-5-[4-(dimethylamino)piperidin-1-yl]imidazo[1,2-c]pyrimidin-7-yl}benzonitrile] | ≤ 50
CN(C)C1CCN(c2nc(-c3ccc(C#N)cc3)c(-c3ccc4c(c3)C(O)CC4)c3nccn23)CC1 (stereo not shown) [Example 121, 4-[5-[4-(dimethylamino)piperidin-1-yl]-8-(3-hydroxy-2,3-dihydro-1H-inden-5-yl)imidazo[1,2-c]pyrimidin-7-yl]benzonitrile] | ≤ 50
CN(C)C1CCN(c2nc(-c3ccc(C#N)cc3)c(-c3ccc4c(c3)CC(O)C4)c3nccn23)CC1 (stereo not shown) [Example 122, 4-[5-[4-(dimethylamino)piperidin-1-yl]-8-(2-hydroxy-2,3-dihydro-1H-inden-5-yl)imidazo[1,2-c]pyrimidin-7-yl]benzonitrile] | ≤ 50
CN1CCC[C@@H](COc2nc(-c3ccc(C#N)cc3)c(-c3ccc4c(c3)C(O)CC4)c3nccn23)C1 (stereo partly drawn) [Example 123, 4-(8-(3-hydroxy-2,3-dihydro-1H-inden-5-yl)-5-{[(3R)-1-methylpiperidin-3-yl]methoxy}imidazo[1,2-c]pyrimidin-7-yl)benzonitrile] | ≤ 50
CN1CCC[C@@H](COc2nc(-c3ccc(C#N)cc3)c(-c3ccc4c(c3)CC(O)C4)c3nccn23)C1 (stereo partly drawn) [Example 124, 4-(8-(2-hydroxy-2,3-dihydro-1H-inden-5-yl)-5-{[(3R)-1-methylpiperidin-3-yl]methoxy}imidazo[1,2-c]pyrimidin-7-yl)benzonitrile] | ≤ 50
CN(C)C1CCN(c2nc(-c3ccc(C#N)cc3)c(-c3cnc4c(ccn4C)c3)c3nccn23)CC1 [Example 125, 4-[5-[4-(dimethylamino)piperidin-1-yl]-8-(1-methyl-1H-pyrrolo[2,3-b]pyridin-5-yl)imidazo[1,2-c]pyrimidin-7-yl]benzonitrile] | ≤ 50
CN(C)C1CCN(c2nc(-c3ccc(C#N)cc3)c(-c3ccc4nccnc4c3)c3nccn23)CC1 [Example 126, 4-{5-[4-(dimethylamino)piperidin-1-yl]-8-quinoxalin-6-ylimidazo[1,2-c]pyrimidin-7-yl}benzonitrile] | 50 to 500
CN(C)C1CCN(c2nc(-c3ccc(C#N)cc3)c(-c3ccc4c(c3F)n(C)c(=O)n4C)c3nccn23)CC1 [Example 127, 4-[5-[4-(dimethylamino)piperidin-1-yl]-8-(4-fluoro-1,3-dimethyl-2-oxo-2,3-dihydro-1H-benzimidazol-5-yl)imidazo[1,2-c]pyrimidin-7-yl]benzonitrile] | ≤ 50
CN(C)C1CCN(c2nc(-c3ccc(C#N)cc3)c(-c3cc(F)c4c(c3)n(C)c(=O)n4C)c3nccn23)CC1 [Example 128, 4-[5-[4-(dimethylamino)piperidin-1-yl]-8-(7-fluoro-1,3-dimethyl-2-oxo-2,3-dihydro-1H-benzimidazol-5-yl)imidazo[1,2-c]pyrimidin-7-yl]benzonitrile] | ≤ 50
CN(C)C1CCN(c2nc(-c3ccc(C#N)cc3)c(-c3cc4c(cc3F)n(C)c(=O)n4C)c3nccn23)CC1 [Example 129, 4-[5-[4-(dimethylamino)piperidin-1-yl]-8-(6-fluoro-1,3-dimethyl-2-oxo-2,3-dihydro-1H-benzimidazol-5-yl)imidazo[1,2-c]pyrimidin-7-yl]benzonitrile] | ≤ 50
CN1C(=O)CCc2cc(-c3c(-c4ccc(C#N)cc4)nc(N4CCC(N(C)C)CC4)n4ccnc34)ccc21 [Example 130, 4-[5-[4-(dimethylamino)piperidin-1-yl]-8-(1-methyl-2-oxo-1,2,3,4-tetrahydroquinolin-6-yl)imidazo[1,2-c]pyrimidin-7-yl]benzonitrile] | ≤ 50
CN1C(=O)CCc2ccc(-c3c(-c4ccc(C#N)cc4)nc(N4CCC(N(C)C)CC4)n4ccnc34)cc21 [Example 131, 4-[5-[4-(dimethylamino)piperidin-1-yl]-8-(1-methyl-2-oxo-1,2,3,4-tetrahydroquinolin-7-yl)imidazo[1,2-c]pyrimidin-7-yl]benzonitrile] | 50 to 500
Cc1ncc(-c2c(-c3ccc(C#N)cc3)nc(N3CCC(N(C)C)CC3)n3ccnc23)cc1C(F)F [Example 132, 4-{8-[5-(difluoromethyl)-6-methylpyridin-3-yl]-5-[4-(dimethylamino)piperidin-1-yl]imidazo[1,2-c]pyrimidin-7-yl}benzonitrile] | 50 to 500
C[C@@H](O)CN1CCC[C@@H](COc2nc(-c3ccc(C#N)cc3)c(-c3ccc4c(c3)oc(=O)n4C)c3nccn23)C1 [Example 133, 4-[5-({(3R)-1-[(2R)-2-hydroxypropyl]piperidin-3-yl}methoxy)-8-(3-methyl-2-oxo-2,3-dihydro-1,3-benzoxazol-6-yl)imidazo[1,2-c]pyrimidin-7-yl]benzonitrile] | 50 to 500
C[C@H](O)CN1CCC[C@@H](COc2nc(-c3ccc(C#N)cc3)c(-c3ccc4c(c3)oc(=O)n4C)c3nccn23)C1 [Example 134, 4-[5-({(3R)-1-[(2S)-2-hydroxypropyl]piperidin-3-yl}methoxy)-8-(3-methyl-2-oxo-2,3-dihydro-1,3-benzoxazol-6-yl)imidazo[1,2-c]pyrimidin-7-yl]benzonitrile] | ≤ 50
Cn1c(=O)oc2cc(-c3c(-c4ccc(C#N)cc4)nc(OC[C@@H]4CCCN(CC(C)(C)O)C4)n4ccnc34)ccc21 [Example 135, 4-[5-{[(3R)-1-(2-hydroxy-2-methylpropyl)piperidin-3-yl]methoxy}-8-(3-methyl-2-oxo-2,3-dihydro-1,3-benzoxazol-6-yl)imidazo[1,2-c]pyrimidin-7-yl]benzonitrile] | 50 to 500
